Experimental data taken from ChEMBL document CHEMBL1131693, “Synthesis and methemoglobin toxicity of the amides of 6/7 mono or disubstituted quinolone” (1999).

Legend:
Canis familiaris [1] = species: Canis familiaris; test: In vitro activity on methemoglobin formation at 1 mM concentration in blood from a normal Beagle dog; Nil; format: functional
Canis familiaris [2] = species: Canis familiaris; test: In vitro activity on methemoglobin formation at 5 mM concentration in blood from a normal Beagle dog; format: functional, Canis lupus familiaris
Canis lupus familiaris = species: Canis lupus familiaris; test: In vitro activity against canine methemoglobin reductase at 33 uM; set-up: unit not given here
Canis familiaris [3] = species: Canis familiaris; test: In vitro activity on methemoglobin formation at 5 mM concentration in blood from a normal Beagle dog; Nil; format: functional; conditions: Canis lupus familiaris
Canis familiaris [4] = species: Canis familiaris; test: In vitro activity on methemoglobin formation at 1 mM concentration in blood from a normal Beagle dog; format: functional, Canis lupus familiaris

Activity (Canis lupus familiaris) | SMILES | Methemoglobin (Canis familiaris [1]; Canis lupus familiaris) | Methemoglobin (Canis familiaris [2]) [%] | Methemoglobin (Canis familiaris [1]) [%] | Methemoglobin (Canis familiaris [3]) | Methemoglobin (Canis familiaris [4]) [%]
0.064 | O=C(NC1CCCCC1)c1cnc2ccc([N+](=O)[O-])cc2c1O | Nil | 6.8 |  |  | 
0.064 | CCN(CC)CCCC(C)NC(=O)c1cnc2ccc([N+](=O)[O-])cc2c1O (stereo unspecified) | Nil | 5.17 |  |  | 
0.064 | CCCCCCCCNC(=O)c1cnc2cc(Cl)c(F)cc2c1O |  | 29.3 | 1.7 |  | 
0.064 | CCCCCCCCNC(=O)c1cnc2ccc(F)cc2c1O | Nil | 18.9 |  |  | 
0.064 | CCN(CC)CCCC(C)NC(=O)c1cnc2cc(Cl)c(F)cc2c1O (stereo unspecified) | Nil | 16.9 |  |  | 
0.064 | CN1CCN(C(=O)c2cnc3ccc(F)cc3c2O)CC1 | Nil | 2 |  |  | 
0.064 | CN1CCN(C(=O)c2cnc3cc(Cl)c(F)cc3c2O)CC1 | Nil |  |  | Nil | 
0.064 | CN1CCN(C(=O)c2cnc3ccc([N+](=O)[O-])cc3c2O)CC1 | Nil | 8.6 |  |  | 
0.064 | O=C(NC1CCCCC1)c1cnc2ccc(F)cc2c1O | Nil | 1.5 |  |  | 
0.064 | CCCCCCCCNC(=O)c1cnc2ccc([N+](=O)[O-])cc2c1O | Nil | 7.7 |  |  | 
0.064 | O=C(NC1CCCCC1)c1cnc2cc(Cl)c(F)cc2c1O | Nil |  |  | Nil | 
0.064 | CCN(CC)CCCC(C)NC(=O)c1cnc2ccc(F)cc2c1O (stereo unspecified) |  | 22.4 |  |  | 1.7
